Results as given in US10106578B2, “Melanocortin-1 receptor-specific linear peptides” (Palatin Technologies, Inc., priority 2012, dated 2018).
Where a SMILES comes first, the peptide text is derived from it. [ ]: non-standard residue; d: D form. Nle = CCCC[C@H](N)C(=O)O; Orn = NCCC[C@H](N)C(=O)O

Key:
[1] = target: T1, hMCR-1 (Homo sapiens, UniProt Q01726); test: Assay for agonist activity: cAMP accumulation in HBL human melanoma cells; format: cell-based; conditions: for Emax: compared to reference agonist NDP-α-MSH, read-out: MC-1 Emax (average; cAMP HBL); for EC50: read-out: MC-1 EC50 (average; cAMP HBL)
T1 construct: endogenous in cells; host or cells: HBL human melanoma cell line
Source text: Accumulation of intracellular cAMP was examined as a measure of the ability of the peptides of the present invention to elicit a functional response in a human melanoma cell line, HBL, that express hMCR-1 (see Kang, L., et al., “A selective small molecule agonist of melanocortin-1 receptor inhibits lipopolysaccharide-induced cytokine accumulation and leukocyte infiltration in mice,” J. Leuk. Biol. 80:897-904 (2006)) or HEK-293 cells that express hMCR-4. Confluent HBL cells that express hMCR-1 or HEK-293 cells that express recombinant hMCR-4 were detached from culture plates by incubation in enzyme-free cell dissociation buffer. Dispersed cells were suspended in Earle's Balanced Salt Solution containing 10 mM HEPES (pH 7.5), 1 mM MgCl2, 1 mM glutamine, 0.5% albumin and 0.3 mM 3-isobutyl-1-methyl-xanthine (IBMX), a phosphodiesterase inhibitor. The cells were plated in 96-well plates at a density of 0.4×10^5 cells per well for HBL cells and 0.5×10^5 cells per well for HEK-293 cells and pre-incubated for 10 minutes. Cells were exposed for 15 minutes at 37° C. to peptides of the present invention dissolved in DMSO (final DMSO concentration of 1%) at a concentration range of 0.05-5000 nM in a total assay volume of 200 μL. NDP-α-MSH was used as the reference agonist. cAMP levels were determined by an HTRF® cAMP cell-based assay system from Cisbio Bioassays utilizing cryptate-labeled anti-cAMP and d2-labeled cAMP, with plates read on a Perkin-Elmer Victor plate reader at […]. Data analysis was performed by nonlinear regression analysis with Graph-Pad PRISM® software. Maximum efficacy (Emax) values were determined for each test peptide of the present invention, compared to that achieved by the reference melanocortin agonist NDP-α-MSH.
(§1) Peptides of the following structures were synthesized and purified as described in Section 5 above, with the resulting peptide having the structure depicted. After synthesis and purification, the foregoing peptide was tested as described in Section 8 above, and average MCR-1 and MCR-4 Ki values determined as indicated. All Ki values were determined using [I^125]-NDP-α-MSH. All results are expressed in nM except for Emax values, which are percentage values.

[2] = target: T2, hMCR-4 (Homo sapiens, UniProt P32245); test: Competitive inhibition binding assay using [I125]-NDP-α-MSH, hMCR-4 membranes; conditions: HEK-293 membranes, recombinant human MCR-4, [I125]-NDP-α-MSH; read-out: MC-4 Ki (average)
T2 construct: expressed in transfected cells; host or cells: HEK-293 cells (membrane homogenates)
Description: (§2) A competitive inhibition binding assay was performed using membrane homogenates prepared from HEK-293 cells that express recombinant hMCR-1a or hMCR-4 (in each instance where the h prefix refers to human), or alternatively membrane homogenates from B16-F10 mouse melanoma cells containing endogenous murine MCR-1. In the examples that follow, all MCR-1 and MCR-4 values are for human recombinant receptors, unless otherwise noted. Assays were performed in 96 well polypropylene round-bottom plates (VWR catalog number 12777-030). Membrane homogenates were incubated with 0.1 nM [I^125]-NDP-α-MSH (Perkin Elmer) and increasing concentrations of test peptides of the present invention in buffer containing 25 mM HEPES buffer (pH 7.5) with 100 mM NaCl, 2 mM CaCl2, 2 mM MgCl2, 0.3 mM 1,10-phenanthroline, and 0.2% bovine serum albumin. After incubation for 90 minutes at 37° C., the assay mixture was filtered onto GF/B Unifilter plates (Perkin-Elmer catalog number 6005177) and washed with 3 mL of ice-cold buffer per well. Filters were air dried and 35 μL of scintillation cocktail added to each well. Plates were counted in a Microbeta counter for bound radioactivity. Non-specific binding was measured by inhibition of binding of [I^125]-NDP-α-MSH in the presence of 1 μM NDP-α-MSH. Maximal specific binding (100%) was defined as the difference in radioactivity (cpm) bound to cell membranes in the absence and presence of 1 μM NDP-α-MSH. Each assay was conducted in duplicate and the actual mean values are described, with results less than 0% reported as 0%. Ki values for peptides of the present invention were determined using Graph-Pad PRISM® curve-fitting software.
as §1

[3] = target: T3, hMCR-1a (Homo sapiens, UniProt Q01726); test: Competitive inhibition binding assay using [I125]-NDP-α-MSH, hMCR-1a membranes; conditions: HEK-293 membranes, recombinant human MCR-1, [I125]-NDP-α-MSH; read-out: MC-1 Ki (average)
T3 construct: expressed in transfected cells; host or cells: HEK-293 cells (membrane homogenates)
Description: as §2, §1

T2 sequence (P32245 whole entry): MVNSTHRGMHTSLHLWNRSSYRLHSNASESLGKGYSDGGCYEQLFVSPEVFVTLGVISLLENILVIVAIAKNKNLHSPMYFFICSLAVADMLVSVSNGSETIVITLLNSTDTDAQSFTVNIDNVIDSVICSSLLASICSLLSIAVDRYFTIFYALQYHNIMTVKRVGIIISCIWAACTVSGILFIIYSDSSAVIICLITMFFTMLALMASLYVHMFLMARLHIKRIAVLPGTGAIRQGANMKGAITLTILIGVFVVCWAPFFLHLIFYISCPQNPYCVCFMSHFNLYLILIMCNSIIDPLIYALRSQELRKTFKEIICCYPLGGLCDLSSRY
T1 sequence (Q01726 whole entry): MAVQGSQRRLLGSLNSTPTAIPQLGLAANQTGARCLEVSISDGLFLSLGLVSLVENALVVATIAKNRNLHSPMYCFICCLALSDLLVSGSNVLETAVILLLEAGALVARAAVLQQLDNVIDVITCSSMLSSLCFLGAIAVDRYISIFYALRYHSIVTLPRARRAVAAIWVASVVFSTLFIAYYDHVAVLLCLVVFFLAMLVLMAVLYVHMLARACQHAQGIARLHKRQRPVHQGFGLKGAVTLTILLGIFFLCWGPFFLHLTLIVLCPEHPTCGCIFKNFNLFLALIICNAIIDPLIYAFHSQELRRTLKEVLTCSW
T3 sequence (Q01726 whole entry): as above

| Compound | Emax [1] | Ki [2] | Ki [3] | EC50 [1] |
| --- | --- | --- | --- | --- |
| CCCC[C@H](NC(C)=O)C(=O)N[C@@H](C)C(=O)N[C@@H](Cc1c[nH]cn1)C(=O)N[C@@H](Cc1ccccc1)C(=O)N[C@@H](CCCNC(=N)N)C(=O)NCC(=O)N[C@@H](Cc1c[nH]c2ccccc12)C(N)=O [Example 9.7, Ac-Nle-Ala-His-Phe-Arg-Gly-Trp-NH2] (Ac-[Nle]AHFRGW-NH2) | 75% |  |  |  |
| CCCC[C@H](NC(C)=O)C(=O)N[C@H](Cc1ccccc1)C(=O)N[C@@H](CCCNC(=N)N)C(=O)N[C@@H](C)C(=O)N[C@@H](Cc1c[nH]c2ccccc12)C(N)=O [Example 9.15, Ac-Nle-D-Phe-Arg-Ala-Trp-NH2] (Ac-[Nle][dF]RAW-NH2) | 67% | 7120 nM | 1290 nM |  |
| CCCC[C@H](NC(C)=O)C(=O)N[C@@H](C)C(=O)N[C@@H](Cc1c[nH]cn1)C(=O)N[C@H](Cc1ccccc1)C(=O)N[C@@H](CCCNC(=N)N)C(=O)N1CCC[C@@H]1C(=O)N[C@@H](Cc1c[nH]c2ccccc12)C(N)=O [Example 9.11, Ac-Nle-Ala-His-D-Phe-Arg-D-Pro-Trp-NH2] (Ac-[Nle]AH[dF]R[dP]W-NH2) | 70% | 6200 nM | 14 nM | 1 nM |
| CCCC[C@H](NC(C)=O)C(=O)N[C@@H](C)C(=O)N[C@@H](Cc1c[nH]cn1)C(=O)N[C@H](Cc1ccccc1)C(=O)N[C@@H](CCCNC(=N)N)C(=O)N[C@@H](C)C(=O)N[C@@H](Cc1c[nH]c2ccccc12)C(N)=O [Example 9.1, Ac-Nle-Ala-His-D-Phe-Arg-Ala-Trp-NH2] (Ac-[Nle]AH[dF]RAW-NH2) | 96% |  |  |  |
| CCCC[C@H](NC(C)=O)C(=O)N[C@@H](C)C(=O)N[C@@H](Cc1c[nH]cn1)C(=O)N[C@H](Cc1ccccc1)C(=O)N[C@@H](CCCNC(=N)N)C(=O)NCC(=O)N[C@@H](Cc1c[nH]c2ccccc12)C(N)=O [Example 9.5, Ac-Nle-Ala-His-D-Phe-Arg-Gly-Trp-NH2] (Ac-[Nle]AH[dF]RGW-NH2) | 90% |  |  |  |
| CCCC[C@H](NC(C)=O)C(=O)N[C@@H](C)C(=O)N[C@@H](Cc1c[nH]cn1)C(=O)N[C@@H](Cc1ccccc1)C(=O)N[C@@H](CCCNC(=N)N)C(=O)N[C@@H](C)C(=O)N[C@@H](Cc1c[nH]c2ccccc12)C(N)=O [Example 9.6, Ac-Nle-Ala-His-Phe-Arg-Ala-Trp-NH2] (Ac-[Nle]AHFRAW-NH2) | 72% |  |  | 4 nM |
| CCCC[C@H](NC(C)=O)C(=O)N[C@@H](Cc1c[nH]cn1)C(=O)N[C@@H](Cc1ccccc1)C(=O)N[C@@H](CCCNC(=N)N)C(=O)N[C@@H](C)C(=O)N[C@@H](Cc1c[nH]c2ccccc12)C(N)=O [Example 9.8, Ac-Nle-His-Phe-Arg-Ala-Trp-NH2] (Ac-[Nle]HFRAW-NH2) | 55% |  |  |  |
| CCCC[C@H](NC(C)=O)C(=O)N[C@@H](C)C(=O)N[C@H](Cc1ccccc1)C(=O)N[C@@H](CCCNC(=N)N)C(=O)N[C@@H](C)C(=O)N[C@@H](Cc1c[nH]c2ccccc12)C(N)=O [Example 9.10, Ac-Nle-Ala-D-Phe-Arg-Ala-Trp-NH2] (Ac-[Nle]A[dF]RAW-NH2) | 85% |  |  |  |
| CCCC[C@H](NC(C)=O)C(=O)N[C@@H](C)C(=O)N[C@@H](Cc1c[nH]cn1)C(=O)N[C@H](Cc1ccccc1)C(=O)N[C@@H](CCCNC(=N)N)C(=O)N1CCC[C@H]1C(=O)N[C@@H](Cc1c[nH]c2ccccc12)C(N)=O [Example 9.2, Ac-Nle-Ala-His-D-Phe-Arg-Pro-Trp-NH2] (Ac-[Nle]AH[dF]RPW-NH2) | 78% |  |  |  |
| CCCC[C@H](NC(C)=O)C(=O)N[C@@H](C)C(=O)N[C@@H](Cc1c[nH]cn1)C(=O)N[C@H](Cc1ccccc1)C(=O)N[C@@H](CCCNC(=N)N)C(=O)N[C@@H](C)C(=O)N[C@@H](Cc1c[nH]c2ccccc12)C(=O)O [Example 9.14, Ac-Nle-Ala-His-D-Phe-Arg-Ala-Trp-OH] (Ac-[Nle]AH[dF]RAW-OH) | 73% |  | 6 nM |  |
| CCCC[C@H](NC(C)=O)C(=O)N[C@@H](C)C(=O)N[C@@H](Cc1c[nH]cn1)C(=O)N[C@H](Cc1ccccc1)C(=O)N[C@@H](CCCNC(=N)N)C(=O)N1CCC[C@@H]1C(=O)N[C@H](Cc1c[nH]c2ccccc12)C(N)=O [Example 9.12, Ac-Nle-Ala-His-D-Phe-Arg-D-Pro-D-Trp-NH2] (Ac-[Nle]AH[dF]R[dP][dW]-NH2) | 72% |  | 20 nM | 2 nM |
| CCCC[C@H](NC(C)=O)C(=O)N[C@@H](Cc1c[nH]cn1)C(=O)N[C@H](Cc1ccccc1)C(=O)N[C@@H](CCCNC(=N)N)C(=O)N[C@@H](C)C(=O)N[C@@H](Cc1c[nH]c2ccccc12)C(N)=O [Example 9.3, Ac-Nle-His-D-Phe-Arg-Ala-Trp-NH2] (Ac-[Nle]H[dF]RAW-NH2) | 95% |  |  | 1 nM |

Continued, values first:

| Emax [1] | Ki [2] | Ki [3] | EC50 [1] | Compound |
| --- | --- | --- | --- | --- |
| 107% |  | 4 nM |  | CCCC[C@H](NC(C)=O)C(=O)N[C@@H](C)C(=O)N[C@@H](CCCCN)C(=O)N[C@H](Cc1ccccc1)C(=O)N[C@@H](CCCNC(=N)N)C(=O)N[C@@H](C)C(=O)N[C@@H](Cc1c[nH]c2ccccc12)C(N)=O [Example 9.20, Ac-Nle-Ala-Lys-D-Phe-Arg-Ala-Trp-NH2] (Ac-[Nle]AK[dF]RAW-NH2) |
| 107% | 7580 nM | 0.3 nM |  | CCCC[C@H](NC(C)=O)C(=O)N[C@@H](C)C(=O)N[C@@H](CCCN)C(=O)N[C@H](Cc1ccccc1)C(=O)N[C@@H](CCCNC(=N)N)C(=O)N[C@@H](C)C(=O)N[C@@H](Cc1c[nH]c2ccccc12)C(N)=O [Example 9.21, Ac-Nle-Ala-Orn-D-Phe-Arg-Ala-Trp-NH2] (Ac-[Nle]A[Orn][dF]RAW-NH2) |
| 106% |  |  |  | CCCC[C@H](NC(C)=O)C(=O)N[C@@H](C)C(=O)N[C@@H](CCCNC(=N)N)C(=O)N[C@H](Cc1ccccc1)C(=O)N[C@@H](CCCNC(=N)N)C(=O)N[C@@H](C)C(=O)N[C@@H](Cc1c[nH]c2ccccc12)C(N)=O [Example 9.18, Ac-Nle-Ala-Arg-D-Phe-Arg-Ala-Trp-NH2] (Ac-[Nle]AR[dF]RAW-NH2) |
| 99% |  |  | 4 nM | CCCC[C@H](NC(C)=O)C(=O)N[C@@H](C)C(=O)N[C@@H](Cc1c[nH]cn1)C(=O)N[C@H](Cc1ccccc1)C(=O)N[C@@H](C)C(=O)N[C@@H](C)C(=O)N[C@@H](Cc1c[nH]c2ccccc12)C(N)=O [Example 9.16, Ac-Nle-Ala-His-D-Phe-Ala-Ala-Trp-NH2] (Ac-[Nle]AH[dF]AAW-NH2) |
| 94% |  |  |  | CCCC[C@H](NC(C)=O)C(=O)N[C@@H](C)C(=O)N[C@@H](C)C(=O)N[C@H](Cc1ccccc1)C(=O)N[C@@H](CCCNC(=N)N)C(=O)N[C@@H](C)C(=O)N[C@@H](Cc1c[nH]c2ccccc12)C(N)=O [Example 9.17, Ac-Nle-Ala-Ala-D-Phe-Arg-Ala-Trp-NH2] (Ac-[Nle]AA[dF]RAW-NH2) |
| 99% |  | 20 nM | 6 nM | CCCC[C@H](NC(C)=O)C(=O)N[C@@H](C)C(=O)N[C@@H](Cc1ccccc1)C(=O)N[C@H](Cc1ccccc1)C(=O)N[C@@H](CCCNC(=N)N)C(=O)N[C@@H](C)C(=O)N[C@@H](Cc1c[nH]c2ccccc12)C(N)=O [Example 9.19, Ac-Nle-Ala-Phe-D-Phe-Arg-Ala-Trp-NH2] (Ac-[Nle]AF[dF]RAW-NH2) |
